Measurements taken from the kinase profiling compilation of Christmann-Franck et al. (2016).

Experiments:
Assay in all cases: Caliper, Mobility shift assay off-chip
[1] = target: AKT1 (human) (UniProt P31749)
[2] = target: AKT2 (human) (UniProt P31751)
[3] = target: AURKB (human) (UniProt Q96GD4)
[4] = target: AXL (human) (UniProt P30530)
[5] = target: BLK (human) (UniProt P51451)
[6] = target: BTK (human) (UniProt Q06187)
[7] = target: CDK4 (human) (UniProt P11802)
[8] = target: CLK3 (human) (UniProt P49761)
[9] = target: CSK (human) (UniProt P41240)
[10] = target: DYRK2 (human) (UniProt Q92630)
[11] = target: EPHA2 (human) (UniProt P29317)
[12] = target: EPHA7 (human) (UniProt Q15375)
[13] = target: FGFR2 (human) (UniProt P21802)
[14] = target: HIPK4 (human) (UniProt Q8NE63)
[15] = target: IGF1R (human) (UniProt P08069)
[16] = target: LATS2 (human) (UniProt Q9NRM7)
[17] = target: MAPK12 (human) (UniProt P53778)
[18] = target: MAPK3 (human) (UniProt P27361)
[19] = target: MARK1 (human) (UniProt Q9P0L2)
[20] = target: MST1R (human) (UniProt Q04912)
[21] = target: NEK2 (human) (UniProt P51955)
[22] = target: NEK9 (human) (UniProt Q8TD19)
[23] = target: PASK (human) (UniProt Q96RG2)
[24] = target: PBK (human) (UniProt Q96KB5)
[25] = target: PDGFRA (human) (UniProt P16234)
[26] = target: PIM2 (human) (UniProt Q9P1W9)
[27] = target: PIM3 (human) (UniProt Q86V86)
[28] = target: RPS6KA3 KD1 KD2 (human) (UniProt P51812)
[29] = target: SPHK1 (human) (UniProt Q9NYA1)
[30] = target: SRC (human) (UniProt P12931)
[31] = target: SYK (human) (UniProt P43405)
[32] = target: TSSK1B (human) (UniProt Q9BXA7)
[33] = target: TSSK2 (human) (UniProt Q96PF2)
[34] = target: TYK2 JH1 JH2 (human) (UniProt P29597)

TSSK1B (human), sequence (Q9BXA7 whole entry, looked up): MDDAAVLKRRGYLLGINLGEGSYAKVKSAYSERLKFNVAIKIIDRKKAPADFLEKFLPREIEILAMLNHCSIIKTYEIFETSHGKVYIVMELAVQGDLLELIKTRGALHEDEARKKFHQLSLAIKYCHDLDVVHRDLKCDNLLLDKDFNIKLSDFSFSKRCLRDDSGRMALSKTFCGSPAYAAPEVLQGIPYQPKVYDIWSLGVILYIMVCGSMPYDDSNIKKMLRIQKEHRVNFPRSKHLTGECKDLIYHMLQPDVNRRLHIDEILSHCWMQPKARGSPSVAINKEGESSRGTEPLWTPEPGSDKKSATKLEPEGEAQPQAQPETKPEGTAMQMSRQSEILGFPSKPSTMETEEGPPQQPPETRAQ
PBK (human), sequence (Q96KB5 whole entry, looked up): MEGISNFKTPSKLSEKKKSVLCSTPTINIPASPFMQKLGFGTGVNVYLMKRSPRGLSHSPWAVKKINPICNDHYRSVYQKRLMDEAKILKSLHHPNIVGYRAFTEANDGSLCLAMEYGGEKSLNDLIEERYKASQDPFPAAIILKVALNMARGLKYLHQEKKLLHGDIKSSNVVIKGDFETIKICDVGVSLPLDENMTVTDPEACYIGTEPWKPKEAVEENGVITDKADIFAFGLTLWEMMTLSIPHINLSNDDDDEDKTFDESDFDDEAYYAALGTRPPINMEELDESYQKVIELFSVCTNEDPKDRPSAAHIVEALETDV
MAPK12 (human), sequence (P53778 whole entry, looked up): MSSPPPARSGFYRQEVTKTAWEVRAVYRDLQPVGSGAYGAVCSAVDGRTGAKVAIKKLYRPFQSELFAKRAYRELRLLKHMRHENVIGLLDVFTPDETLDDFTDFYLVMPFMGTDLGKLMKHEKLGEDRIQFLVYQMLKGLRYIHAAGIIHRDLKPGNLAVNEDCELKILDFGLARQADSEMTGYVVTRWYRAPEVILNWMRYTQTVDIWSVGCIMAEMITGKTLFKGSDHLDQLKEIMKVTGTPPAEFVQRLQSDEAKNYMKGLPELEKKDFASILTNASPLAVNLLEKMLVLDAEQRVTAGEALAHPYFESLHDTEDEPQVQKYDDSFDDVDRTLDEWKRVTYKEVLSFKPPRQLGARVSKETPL
IGF1R (human), sequence (P08069 whole entry, looked up): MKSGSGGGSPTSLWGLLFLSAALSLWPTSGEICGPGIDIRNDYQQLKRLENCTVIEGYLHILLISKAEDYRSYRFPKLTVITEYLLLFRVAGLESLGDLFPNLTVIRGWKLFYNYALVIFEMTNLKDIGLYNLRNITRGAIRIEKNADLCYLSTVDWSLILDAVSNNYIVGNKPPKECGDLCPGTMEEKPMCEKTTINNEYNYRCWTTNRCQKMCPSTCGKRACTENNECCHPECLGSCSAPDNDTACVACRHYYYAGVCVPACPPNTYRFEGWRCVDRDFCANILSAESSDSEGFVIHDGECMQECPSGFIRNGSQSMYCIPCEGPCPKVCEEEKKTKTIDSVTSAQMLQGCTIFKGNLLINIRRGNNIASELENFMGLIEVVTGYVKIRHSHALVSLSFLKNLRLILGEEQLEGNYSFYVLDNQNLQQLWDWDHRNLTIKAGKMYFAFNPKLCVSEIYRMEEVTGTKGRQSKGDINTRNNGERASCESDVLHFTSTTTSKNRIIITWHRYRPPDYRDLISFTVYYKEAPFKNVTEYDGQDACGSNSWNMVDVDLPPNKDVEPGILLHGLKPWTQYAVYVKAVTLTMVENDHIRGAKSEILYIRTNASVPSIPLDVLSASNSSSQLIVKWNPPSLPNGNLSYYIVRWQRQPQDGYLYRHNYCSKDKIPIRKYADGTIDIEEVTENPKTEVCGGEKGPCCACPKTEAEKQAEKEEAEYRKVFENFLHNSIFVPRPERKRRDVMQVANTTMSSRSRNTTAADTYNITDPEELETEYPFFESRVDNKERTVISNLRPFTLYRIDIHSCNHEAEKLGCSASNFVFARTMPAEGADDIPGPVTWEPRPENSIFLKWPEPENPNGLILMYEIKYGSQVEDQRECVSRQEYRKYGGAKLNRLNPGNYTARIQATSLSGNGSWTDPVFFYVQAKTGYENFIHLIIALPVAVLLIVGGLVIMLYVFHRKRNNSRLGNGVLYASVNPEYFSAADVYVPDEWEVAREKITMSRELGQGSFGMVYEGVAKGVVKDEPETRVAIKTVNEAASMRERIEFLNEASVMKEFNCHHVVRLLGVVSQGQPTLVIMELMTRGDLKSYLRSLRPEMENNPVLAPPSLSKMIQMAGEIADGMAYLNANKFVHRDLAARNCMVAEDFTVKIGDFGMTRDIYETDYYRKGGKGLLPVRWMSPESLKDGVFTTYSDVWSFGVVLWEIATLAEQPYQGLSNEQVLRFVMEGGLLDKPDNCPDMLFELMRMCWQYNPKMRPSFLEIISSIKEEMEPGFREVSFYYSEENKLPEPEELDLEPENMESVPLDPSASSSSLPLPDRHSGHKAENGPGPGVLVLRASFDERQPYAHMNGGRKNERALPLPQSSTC
AXL (human), sequence (P30530 whole entry, looked up): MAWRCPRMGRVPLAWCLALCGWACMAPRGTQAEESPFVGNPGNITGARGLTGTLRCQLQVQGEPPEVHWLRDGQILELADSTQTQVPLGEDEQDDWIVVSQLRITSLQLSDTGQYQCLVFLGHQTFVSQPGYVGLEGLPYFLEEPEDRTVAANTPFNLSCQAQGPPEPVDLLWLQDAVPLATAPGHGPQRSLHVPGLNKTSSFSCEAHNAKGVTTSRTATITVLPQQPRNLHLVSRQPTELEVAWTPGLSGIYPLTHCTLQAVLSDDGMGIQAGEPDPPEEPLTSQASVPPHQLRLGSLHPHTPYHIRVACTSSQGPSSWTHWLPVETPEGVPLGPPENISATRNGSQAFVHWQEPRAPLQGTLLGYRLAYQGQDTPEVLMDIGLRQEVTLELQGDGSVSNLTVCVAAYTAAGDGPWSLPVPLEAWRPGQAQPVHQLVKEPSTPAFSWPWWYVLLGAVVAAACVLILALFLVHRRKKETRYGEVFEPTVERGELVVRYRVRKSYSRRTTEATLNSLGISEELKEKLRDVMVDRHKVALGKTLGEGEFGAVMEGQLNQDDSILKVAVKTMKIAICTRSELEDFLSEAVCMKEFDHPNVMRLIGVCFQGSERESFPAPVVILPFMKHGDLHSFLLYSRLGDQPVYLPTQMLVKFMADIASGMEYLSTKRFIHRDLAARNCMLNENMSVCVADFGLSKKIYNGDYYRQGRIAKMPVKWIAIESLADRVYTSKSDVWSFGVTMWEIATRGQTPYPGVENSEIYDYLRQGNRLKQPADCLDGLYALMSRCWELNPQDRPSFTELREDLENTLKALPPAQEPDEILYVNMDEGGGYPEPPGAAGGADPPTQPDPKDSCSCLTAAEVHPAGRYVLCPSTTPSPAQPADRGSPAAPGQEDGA
FGFR2 (human), sequence (P21802 whole entry, looked up): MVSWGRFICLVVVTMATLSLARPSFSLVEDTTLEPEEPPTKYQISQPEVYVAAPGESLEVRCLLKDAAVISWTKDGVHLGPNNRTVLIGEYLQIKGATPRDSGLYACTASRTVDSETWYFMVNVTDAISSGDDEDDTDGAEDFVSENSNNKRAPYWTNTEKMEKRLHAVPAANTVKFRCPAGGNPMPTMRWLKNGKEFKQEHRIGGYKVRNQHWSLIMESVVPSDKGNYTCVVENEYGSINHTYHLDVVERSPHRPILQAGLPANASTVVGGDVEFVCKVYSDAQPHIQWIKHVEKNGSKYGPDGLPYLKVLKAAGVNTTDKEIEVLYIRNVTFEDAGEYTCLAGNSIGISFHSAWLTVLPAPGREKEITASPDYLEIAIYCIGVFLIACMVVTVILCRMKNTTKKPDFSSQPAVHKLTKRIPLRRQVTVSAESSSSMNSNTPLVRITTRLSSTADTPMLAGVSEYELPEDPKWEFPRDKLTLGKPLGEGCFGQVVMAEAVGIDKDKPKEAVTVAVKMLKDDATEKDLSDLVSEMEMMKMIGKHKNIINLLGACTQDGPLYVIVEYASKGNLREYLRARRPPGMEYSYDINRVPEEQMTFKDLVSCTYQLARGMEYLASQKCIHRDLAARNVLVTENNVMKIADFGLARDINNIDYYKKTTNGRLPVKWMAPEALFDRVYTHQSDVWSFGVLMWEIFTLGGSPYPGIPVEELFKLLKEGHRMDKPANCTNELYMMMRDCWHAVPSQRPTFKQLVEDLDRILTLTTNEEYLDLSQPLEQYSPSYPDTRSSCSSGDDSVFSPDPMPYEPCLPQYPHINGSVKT
SPHK1 (human), sequence (Q9NYA1 whole entry, looked up): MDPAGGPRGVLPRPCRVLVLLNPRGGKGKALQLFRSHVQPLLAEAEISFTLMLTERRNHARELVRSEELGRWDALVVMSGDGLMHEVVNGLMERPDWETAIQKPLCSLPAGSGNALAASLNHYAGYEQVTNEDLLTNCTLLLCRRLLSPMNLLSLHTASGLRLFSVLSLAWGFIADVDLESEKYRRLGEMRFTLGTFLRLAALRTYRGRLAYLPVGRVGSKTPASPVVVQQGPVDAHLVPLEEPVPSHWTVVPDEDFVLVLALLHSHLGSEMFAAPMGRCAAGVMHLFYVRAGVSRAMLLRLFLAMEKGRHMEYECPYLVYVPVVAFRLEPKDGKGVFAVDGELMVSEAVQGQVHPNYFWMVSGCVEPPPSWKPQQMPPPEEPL

inhibition ([1]; compound 0.02 µM): -0.8%
inhibition ([1]; compound 0.2 µM): -3.1%
inhibition ([2]; compound 0.02 µM): 6.9%
inhibition ([2]; compound 0.2 µM): -0.1%
inhibition ([3]; compound 0.02 µM): 4.5%
inhibition ([3]; compound 0.2 µM): 8.3%
inhibition ([4]; compound 0.02 µM): 6.9%
inhibition ([4]; compound 0.2 µM): 17.7%
inhibition ([5]; compound 0.02 µM): 13.8%
inhibition ([5]; compound 0.2 µM): 36.1%
inhibition ([6]; compound 0.02 µM): 3.4%
inhibition ([6]; compound 0.2 µM): 10.1%
inhibition ([7]; compound 0.02 µM): 2.7%
inhibition ([7]; compound 0.2 µM): 7.2%
inhibition ([8]; compound 0.02 µM): 11.9%
inhibition ([8]; compound 0.2 µM): -4.2%
inhibition ([9]; compound 0.02 µM): -6.7%
inhibition ([9]; compound 0.2 µM): -6.3%
inhibition ([10]; compound 0.02 µM): 13.4%
inhibition ([10]; compound 0.2 µM): -5.6%
inhibition ([11]; compound 0.02 µM): -5.4%
inhibition ([11]; compound 0.2 µM): -3.5%
inhibition ([12]; compound 0.02 µM): -2.4%
inhibition ([12]; compound 0.2 µM): 23.5%
inhibition ([13]; compound 0.02 µM): 71.8%
inhibition ([13]; compound 0.2 µM): 98.3%
inhibition ([14]; compound 0.02 µM): -0.9%
inhibition ([14]; compound 0.2 µM): -6.5%
inhibition ([15]; compound 0.02 µM): 1.4%
inhibition ([15]; compound 0.2 µM): -1.5%
inhibition ([16]; compound 0.02 µM): -7.6%
inhibition ([16]; compound 0.2 µM): -0.9%
inhibition ([17]; compound 0.02 µM): -4.8%
inhibition ([17]; compound 0.2 µM): -0.1%
inhibition ([18]; compound 0.02 µM): -1.5%
inhibition ([18]; compound 0.2 µM): -5%
inhibition ([19]; compound 0.02 µM): -2.2%
inhibition ([19]; compound 0.2 µM): 2.7%
inhibition ([20]; compound 0.02 µM): 4.9%
inhibition ([20]; compound 0.2 µM): 10.8%
inhibition ([21]; compound 0.02 µM): 6.3%
inhibition ([21]; compound 0.2 µM): 5.3%
inhibition ([23]; compound 0.02 µM): -4.3%
inhibition ([23]; compound 0.2 µM): 0.3%
inhibition ([24]; compound 0.02 µM): 0.1%
inhibition ([24]; compound 0.2 µM): -6.1%
inhibition ([25]; compound 0.02 µM): 39.2%
inhibition ([25]; compound 0.2 µM): 86.9%
inhibition ([26]; compound 0.02 µM): 6.1%
inhibition ([26]; compound 0.2 µM): 8.8%
inhibition ([27]; compound 0.02 µM): -1.8%
inhibition ([27]; compound 0.2 µM): -6.2%
inhibition ([28]; compound 0.02 µM): 0.1%
inhibition ([28]; compound 0.2 µM): -1.8%
inhibition ([29]; compound 0.02 µM): -5.6%
inhibition ([29]; compound 0.2 µM): -7.8%
Ki [30]: 83.5 nM
inhibition ([30]; compound 0.2 µM): 58.1%
inhibition ([31]; compound 0.02 µM): -4.7%
inhibition ([31]; compound 0.2 µM): -3.5%
inhibition ([32]; compound 0.02 µM): -3.6%
inhibition ([32]; compound 0.2 µM): -3.6%
inhibition ([33]; compound 0.02 µM): -4.1%
inhibition ([33]; compound 0.2 µM): -3.4%
inhibition ([34]; compound 0.02 µM): 4.8%
inhibition ([34]; compound 0.2 µM): 2.2%
SMILES: COc1cc2c(Oc3ccc4[nH]c(C)cc4c3F)ncnc2cc1OCCCN1CCCC1
inhibition ([22]; compound 0.02 µM): -3.3%
inhibition ([22]; compound 0.2 µM): -2.9%
